# In the kinase profiling compilation of Christmann-Franck et al. (2016):
# “And” between values parts separate entries of the source, which are not always exact repeats. Equal entries are not always repeated.
# Key:
# Experiment in all cases: KINOMEscan competition binding
# Conditions in all cases: compound 1.0 µM
# [1] = target: AURKB (human) (UniProt Q96GD4)
# [2] = target: BMPR1A (human) (UniProt P36894)
# [3] = target: BMX (human) (UniProt P51813)
# [4] = target: CAMKK1 (human) (UniProt Q8N5S9)
# [5] = target: CDKL5 (human) (UniProt O76039)
# [6] = target: CHUK (human) (UniProt O15111)
# [7] = target: CSNK1E (human) (UniProt P49674)
# [8] = target: EGFR (human) (UniProt P00533)
# [9] = test system: EGFR (human), P00533 [G719C]
# [10] = target: EPHA4 (human) (UniProt P54764)
# [11] = target: FGR (human) (UniProt P09769)
# [12] = target: FLT3 (human) (UniProt P36888)
# [13] = test system: FLT3 (human), P36888 [D835Y]
# [14] = test system: FLT3 (human), P36888 [R834Q]
# [15] = target: FYN (human) (UniProt P06241)
# [16] = target: JAK2 JH1 catalytic (human) (UniProt O60674)
# [17] = test system: KIT (human), P10721 [L576P]
# [18] = test system: KIT (human), P10721 [V559D]
# [19] = target: LATS2 (human) (UniProt Q9NRM7)
# [20] = target: LIMK2 (human) (UniProt P53671)
# [21] = target: MAP2K2 (human) (UniProt P36507)
# [22] = target: MAP2K7 (human) (UniProt O14733)
# [23] = target: MAPK3 (human) (UniProt P27361)
# [24] = target: NEK4 (human) (UniProt P51957)
# [25] = target: NLK (human) (UniProt Q9UBE8)
# [26] = target: PDGFRA (human) (UniProt P16234)
# [27] = target: PDGFRB (human) (UniProt P09619)
# [28] = target: PI4KB (human) (UniProt Q9UBF8)
# [29] = target: PIK3CA (human) (UniProt P42336)
# [30] = target: PIK3CD (human) (UniProt O00329)
# [31] = target: PIP5K1C (human) (UniProt O60331)
# [32] = target: PKN2 (human) (UniProt Q16513)
# [33] = target: PKN3 (M.tuberculosis) (UniProt Q6P5Z2)
# [34] = test system: RET (human), P07949 [V804L]
# [35] = target: ROCK2 (human) (UniProt O75116)
# [36] = target: RPS6KA4 KD1 (human) (UniProt O75676)
# [37] = target: TAOK3 (human) (UniProt Q9H2K8)
# [38] = target: TYK2 JH2 pseudokinase (human) (UniProt P29597)
# [39] = target: YSK4 (human) (UniProt Q56UN5)
# Sequence of KIT (human), P10721 [L576P] (P10721 whole entry L576P, looked up): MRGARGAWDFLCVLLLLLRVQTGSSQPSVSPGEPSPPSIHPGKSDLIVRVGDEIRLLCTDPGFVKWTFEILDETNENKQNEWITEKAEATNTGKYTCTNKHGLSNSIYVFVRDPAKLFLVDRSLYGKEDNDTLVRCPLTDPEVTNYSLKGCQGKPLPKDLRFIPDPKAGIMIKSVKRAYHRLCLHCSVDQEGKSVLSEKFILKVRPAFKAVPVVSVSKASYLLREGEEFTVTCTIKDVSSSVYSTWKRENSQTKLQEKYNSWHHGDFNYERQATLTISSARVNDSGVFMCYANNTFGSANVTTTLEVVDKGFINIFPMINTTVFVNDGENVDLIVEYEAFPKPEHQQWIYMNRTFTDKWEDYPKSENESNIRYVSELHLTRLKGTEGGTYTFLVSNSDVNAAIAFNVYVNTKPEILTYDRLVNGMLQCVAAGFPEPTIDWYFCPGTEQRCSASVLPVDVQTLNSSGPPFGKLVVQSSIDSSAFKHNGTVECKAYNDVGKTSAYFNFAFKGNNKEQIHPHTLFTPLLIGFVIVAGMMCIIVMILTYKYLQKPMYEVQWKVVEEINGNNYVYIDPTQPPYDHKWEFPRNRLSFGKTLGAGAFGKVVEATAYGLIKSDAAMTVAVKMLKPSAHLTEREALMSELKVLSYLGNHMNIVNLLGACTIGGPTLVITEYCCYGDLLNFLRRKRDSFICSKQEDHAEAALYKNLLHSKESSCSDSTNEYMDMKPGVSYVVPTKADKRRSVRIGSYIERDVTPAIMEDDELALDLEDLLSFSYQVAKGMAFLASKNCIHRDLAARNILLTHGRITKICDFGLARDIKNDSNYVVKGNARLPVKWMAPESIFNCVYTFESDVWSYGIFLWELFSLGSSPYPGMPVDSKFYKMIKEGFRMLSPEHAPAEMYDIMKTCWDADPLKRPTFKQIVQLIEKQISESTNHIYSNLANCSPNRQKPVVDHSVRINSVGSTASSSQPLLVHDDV
# Sequence of PIK3CD (human) (O00329 whole entry, looked up): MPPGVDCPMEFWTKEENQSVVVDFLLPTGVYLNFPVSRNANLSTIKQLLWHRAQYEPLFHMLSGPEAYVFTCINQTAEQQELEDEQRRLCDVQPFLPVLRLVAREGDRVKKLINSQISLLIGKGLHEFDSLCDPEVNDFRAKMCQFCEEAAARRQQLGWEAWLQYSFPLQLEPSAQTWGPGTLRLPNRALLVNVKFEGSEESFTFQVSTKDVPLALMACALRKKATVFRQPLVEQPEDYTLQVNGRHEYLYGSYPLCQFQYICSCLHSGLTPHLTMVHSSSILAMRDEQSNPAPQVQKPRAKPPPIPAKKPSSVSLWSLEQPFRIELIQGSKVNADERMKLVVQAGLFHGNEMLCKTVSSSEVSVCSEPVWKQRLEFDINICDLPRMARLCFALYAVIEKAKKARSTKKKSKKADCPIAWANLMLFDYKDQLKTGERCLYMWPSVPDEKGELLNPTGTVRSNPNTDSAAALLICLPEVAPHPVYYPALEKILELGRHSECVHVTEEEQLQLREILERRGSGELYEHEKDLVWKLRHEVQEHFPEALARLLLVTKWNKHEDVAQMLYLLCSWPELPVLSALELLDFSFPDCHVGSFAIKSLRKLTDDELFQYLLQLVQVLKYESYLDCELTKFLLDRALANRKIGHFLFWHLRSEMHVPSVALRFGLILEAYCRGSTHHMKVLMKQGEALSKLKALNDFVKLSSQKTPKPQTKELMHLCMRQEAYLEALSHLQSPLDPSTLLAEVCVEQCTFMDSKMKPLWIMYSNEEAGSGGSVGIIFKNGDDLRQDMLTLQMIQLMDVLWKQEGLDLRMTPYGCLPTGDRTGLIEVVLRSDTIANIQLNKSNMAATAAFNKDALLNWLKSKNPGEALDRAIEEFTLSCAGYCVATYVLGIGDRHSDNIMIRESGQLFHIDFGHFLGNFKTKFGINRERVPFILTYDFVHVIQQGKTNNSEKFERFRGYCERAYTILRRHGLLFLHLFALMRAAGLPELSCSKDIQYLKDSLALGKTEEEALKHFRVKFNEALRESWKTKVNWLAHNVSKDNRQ
# Sequence of BMPR1A (human) (P36894 whole entry, looked up): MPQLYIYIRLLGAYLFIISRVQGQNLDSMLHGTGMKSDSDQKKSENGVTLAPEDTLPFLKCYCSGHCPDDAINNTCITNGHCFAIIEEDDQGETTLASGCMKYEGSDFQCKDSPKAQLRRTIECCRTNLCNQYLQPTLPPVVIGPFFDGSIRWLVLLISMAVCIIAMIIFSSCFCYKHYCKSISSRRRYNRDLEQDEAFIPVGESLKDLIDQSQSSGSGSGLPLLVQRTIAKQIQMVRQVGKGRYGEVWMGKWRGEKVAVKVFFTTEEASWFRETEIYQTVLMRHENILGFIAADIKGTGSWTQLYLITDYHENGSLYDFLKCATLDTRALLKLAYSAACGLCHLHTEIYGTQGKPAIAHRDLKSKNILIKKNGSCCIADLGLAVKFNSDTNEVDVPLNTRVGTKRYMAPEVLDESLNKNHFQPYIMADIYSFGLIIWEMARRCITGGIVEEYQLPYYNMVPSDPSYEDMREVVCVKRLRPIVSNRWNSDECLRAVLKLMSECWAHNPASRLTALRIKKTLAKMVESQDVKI
# Sequence of TYK2 JH2 pseudokinase (human) (P29597 whole entry, looked up): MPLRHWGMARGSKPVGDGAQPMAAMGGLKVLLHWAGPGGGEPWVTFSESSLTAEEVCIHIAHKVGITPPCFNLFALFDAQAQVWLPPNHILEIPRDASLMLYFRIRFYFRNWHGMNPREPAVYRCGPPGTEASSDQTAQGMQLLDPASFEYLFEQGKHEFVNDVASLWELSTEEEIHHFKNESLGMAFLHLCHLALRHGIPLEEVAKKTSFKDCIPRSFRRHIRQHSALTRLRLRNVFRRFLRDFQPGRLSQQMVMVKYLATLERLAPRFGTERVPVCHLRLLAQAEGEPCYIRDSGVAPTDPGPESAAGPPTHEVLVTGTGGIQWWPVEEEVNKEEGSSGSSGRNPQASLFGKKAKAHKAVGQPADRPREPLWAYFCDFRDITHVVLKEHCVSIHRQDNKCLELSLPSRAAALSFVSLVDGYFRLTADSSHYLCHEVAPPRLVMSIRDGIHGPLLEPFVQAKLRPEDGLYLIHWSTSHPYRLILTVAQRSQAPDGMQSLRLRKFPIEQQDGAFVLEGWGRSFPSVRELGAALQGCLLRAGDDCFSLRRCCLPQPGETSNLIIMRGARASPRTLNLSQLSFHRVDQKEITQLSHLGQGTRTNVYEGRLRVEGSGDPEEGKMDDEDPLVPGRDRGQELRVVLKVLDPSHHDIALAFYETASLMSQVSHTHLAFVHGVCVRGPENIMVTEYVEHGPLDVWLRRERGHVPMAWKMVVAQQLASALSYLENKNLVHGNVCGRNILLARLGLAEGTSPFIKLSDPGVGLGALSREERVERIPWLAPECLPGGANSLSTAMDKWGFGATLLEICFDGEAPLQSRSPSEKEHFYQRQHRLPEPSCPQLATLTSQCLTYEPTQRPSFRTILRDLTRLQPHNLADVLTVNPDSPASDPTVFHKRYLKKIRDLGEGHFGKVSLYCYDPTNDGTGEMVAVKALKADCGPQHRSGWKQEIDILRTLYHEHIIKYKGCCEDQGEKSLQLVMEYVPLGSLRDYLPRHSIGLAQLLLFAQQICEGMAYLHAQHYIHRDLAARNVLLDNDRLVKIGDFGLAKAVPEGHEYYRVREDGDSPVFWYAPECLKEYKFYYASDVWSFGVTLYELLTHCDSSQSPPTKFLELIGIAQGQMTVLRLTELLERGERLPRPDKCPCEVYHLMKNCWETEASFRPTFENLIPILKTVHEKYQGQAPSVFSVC
# Sequence of MAP2K2 (human) (P36507 whole entry, looked up): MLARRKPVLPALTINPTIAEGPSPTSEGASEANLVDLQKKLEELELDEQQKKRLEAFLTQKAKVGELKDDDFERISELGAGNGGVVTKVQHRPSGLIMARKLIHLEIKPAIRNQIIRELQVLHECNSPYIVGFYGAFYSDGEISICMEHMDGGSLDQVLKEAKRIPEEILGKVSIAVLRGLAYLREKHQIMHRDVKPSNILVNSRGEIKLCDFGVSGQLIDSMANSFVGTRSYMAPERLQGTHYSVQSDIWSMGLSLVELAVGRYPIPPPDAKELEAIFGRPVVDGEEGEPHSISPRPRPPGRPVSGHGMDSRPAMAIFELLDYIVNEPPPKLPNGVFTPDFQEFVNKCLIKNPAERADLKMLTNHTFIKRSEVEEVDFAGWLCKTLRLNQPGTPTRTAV
# Sequence of MAP2K7 (human) (O14733 whole entry, looked up): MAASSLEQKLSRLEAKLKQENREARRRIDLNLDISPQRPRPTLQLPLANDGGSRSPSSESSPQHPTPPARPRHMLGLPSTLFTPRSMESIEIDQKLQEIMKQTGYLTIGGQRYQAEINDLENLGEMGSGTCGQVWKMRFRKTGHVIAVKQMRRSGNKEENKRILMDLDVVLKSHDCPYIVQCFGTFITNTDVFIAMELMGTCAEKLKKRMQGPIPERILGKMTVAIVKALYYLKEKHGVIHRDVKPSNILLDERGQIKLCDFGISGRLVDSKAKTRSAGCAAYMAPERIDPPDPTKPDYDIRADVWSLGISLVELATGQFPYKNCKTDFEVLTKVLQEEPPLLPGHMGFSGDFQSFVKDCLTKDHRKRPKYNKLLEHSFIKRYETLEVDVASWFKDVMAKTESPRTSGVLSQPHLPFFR
# Sequence of CAMKK1 (human) (Q8N5S9 whole entry, looked up): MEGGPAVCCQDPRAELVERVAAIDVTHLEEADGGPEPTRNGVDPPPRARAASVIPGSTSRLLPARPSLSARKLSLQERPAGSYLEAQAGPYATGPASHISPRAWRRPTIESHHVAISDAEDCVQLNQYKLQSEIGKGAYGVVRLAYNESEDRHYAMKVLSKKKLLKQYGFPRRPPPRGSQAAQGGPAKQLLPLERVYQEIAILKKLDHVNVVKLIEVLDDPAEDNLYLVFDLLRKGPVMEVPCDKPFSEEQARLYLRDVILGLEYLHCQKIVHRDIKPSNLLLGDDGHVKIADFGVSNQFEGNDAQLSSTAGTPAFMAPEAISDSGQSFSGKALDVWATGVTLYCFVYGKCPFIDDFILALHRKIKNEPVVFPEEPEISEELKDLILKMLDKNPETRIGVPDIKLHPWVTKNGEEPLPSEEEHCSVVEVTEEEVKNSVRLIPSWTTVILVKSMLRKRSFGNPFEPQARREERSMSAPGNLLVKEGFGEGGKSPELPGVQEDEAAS
structure (smiles),measurement,setting,value
CNc1nc(Nc2ccc(C(=O)N3CCOCC3)cc2OC)ncc1Cl,"kinase still bound, per cent of control",[1],100%
same,"kinase still bound, per cent of control",[2],100%
same,"kinase still bound, per cent of control",[3],100%
same,"kinase still bound, per cent of control",[4],79%
same,residual activity,[5],94%
same,"kinase still bound, per cent of control",[6],50%
same,"kinase still bound, per cent of control",[7],100%
same,"kinase still bound, per cent of control",[8],100%
same,"kinase still bound, per cent of control",[9],100%
same,"kinase still bound, per cent of control",[10],100%
same,"kinase still bound, per cent of control",[11],100%
same,"kinase still bound, per cent of control",[12],49% and 65%
same,"kinase still bound, per cent of control",[13],72%
same,"kinase still bound, per cent of control",[14],100%
same,"kinase still bound, per cent of control",[15],56%
same,"kinase still bound, per cent of control",[16],100%
same,"kinase still bound, per cent of control",[17],9.4%
same,"kinase still bound, per cent of control",[18],18%
same,"kinase still bound, per cent of control",[19],100%
same,"kinase still bound, per cent of control",[20],100%
same,"kinase still bound, per cent of control",[21],84%
same,"kinase still bound, per cent of control",[22],100%
same,"kinase still bound, per cent of control",[23],100%
same,"kinase still bound, per cent of control",[24],87%
same,"kinase still bound, per cent of control",[25],100%
same,"kinase still bound, per cent of control",[26],87%
same,"kinase still bound, per cent of control",[27],76%
same,"kinase still bound, per cent of control",[28],100%
same,"kinase still bound, per cent of control",[29],100%
same,"kinase still bound, per cent of control",[30],69%
same,"kinase still bound, per cent of control",[31],99%
same,"kinase still bound, per cent of control",[32],79%
same,"kinase still bound, per cent of control",[33],85%
same,"kinase still bound, per cent of control",[34],99%
same,"kinase still bound, per cent of control",[35],100%
same,"kinase still bound, per cent of control",[36],89%
same,"kinase still bound, per cent of control",[37],100%
same,"kinase still bound, per cent of control",[38],100%
same,"kinase still bound, per cent of control",[39],44%
